{"source": "patent US9822136B2", "about": "“Chemical inhibitors of sebocyte function” (priority 2016, dated 2017)", "key": {"[1]": {"target": "T1, cloned hTRPM8 channel (Homo sapiens, UniProt Q7Z2W7)", "T1 construct": "host or cells: CHO cells", "T1 sequence (Q7Z2W7 whole entry)": "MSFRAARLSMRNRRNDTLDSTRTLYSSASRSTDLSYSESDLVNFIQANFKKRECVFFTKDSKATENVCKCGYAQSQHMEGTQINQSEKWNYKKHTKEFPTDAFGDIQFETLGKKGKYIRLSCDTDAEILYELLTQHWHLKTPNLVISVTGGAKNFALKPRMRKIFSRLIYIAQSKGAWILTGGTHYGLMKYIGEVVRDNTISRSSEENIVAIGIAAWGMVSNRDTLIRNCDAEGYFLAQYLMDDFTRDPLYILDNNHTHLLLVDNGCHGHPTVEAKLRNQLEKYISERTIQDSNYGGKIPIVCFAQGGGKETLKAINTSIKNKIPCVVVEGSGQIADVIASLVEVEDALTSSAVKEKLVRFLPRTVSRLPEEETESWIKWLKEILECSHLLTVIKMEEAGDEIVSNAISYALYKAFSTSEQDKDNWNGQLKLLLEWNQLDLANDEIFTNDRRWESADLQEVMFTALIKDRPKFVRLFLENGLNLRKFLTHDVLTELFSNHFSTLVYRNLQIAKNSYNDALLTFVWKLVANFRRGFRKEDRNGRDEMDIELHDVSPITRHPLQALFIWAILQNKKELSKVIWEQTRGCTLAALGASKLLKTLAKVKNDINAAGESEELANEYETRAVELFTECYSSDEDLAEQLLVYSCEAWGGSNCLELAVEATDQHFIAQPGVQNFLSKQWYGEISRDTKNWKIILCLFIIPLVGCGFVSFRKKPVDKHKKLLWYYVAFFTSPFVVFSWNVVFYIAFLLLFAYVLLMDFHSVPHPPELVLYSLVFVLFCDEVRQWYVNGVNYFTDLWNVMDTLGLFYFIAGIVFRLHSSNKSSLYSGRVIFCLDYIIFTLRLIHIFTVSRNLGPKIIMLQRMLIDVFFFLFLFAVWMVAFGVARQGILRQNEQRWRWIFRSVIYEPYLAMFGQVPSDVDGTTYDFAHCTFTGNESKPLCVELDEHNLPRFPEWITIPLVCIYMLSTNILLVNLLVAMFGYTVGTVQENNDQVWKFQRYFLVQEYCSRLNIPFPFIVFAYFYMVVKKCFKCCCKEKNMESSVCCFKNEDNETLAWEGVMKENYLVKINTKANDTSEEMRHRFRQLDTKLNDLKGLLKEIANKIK", "experiment": "TRPM8 activation, FLIPR calcium assay in CHO cells", "assay_type": "cell-based", "description": "The in vitro effects of test articles were first evaluated on cloned hTRPM8 channel. […] The test cells were Chinese Hamster Ovary (CHO) cells stably transfected with human TRPM8 cDNAs. […] Substances were evaluated at 8 concentrations (0.03 to 300 μM) with n=4 replicates per determination. For Fluorescence Imaging Plate Reader ([…]″) assay, cells were plated in 384-well black wall, flat clear-bottom microtiter plates (Type: BD Biocoat Poly-D-Lysine Multiwell Cell Culture Plate) at approximately 30,000 cells per well. Cells were incubated at 37° C. overnight to reach a near confluent monolayer appropriate for use in a fluorescence assay. The test procedure was to remove the growth media and to add 40 μL of HBPS containing Fluo-8 for 30 minutes at 37° C. 10 μL of test compound, vehicle, or control solutions in HBPS were then added to each well and read for 4 min using a Fluo-8 calcium kit and the […]″ instrument (Molecular Devices, Sunnyvale, California). […] J. Neurosci.\nConcentration-response data were analysed via the FLIPR Control software that is supplied with the FLIPR System (MDS-AT) and fitted to a Hill equation of the following form: Response=Base+(Max−Base)/1+(xhalf/x)^rate, where: “Base” is the response at low concentrations of test compound; “Max” is the maximum response at high concentrations; “xhalf” is the EC50 (the concentration of test compound producing half-maximal activation); and “rate” is the Hill coefficient. Nonlinear least squares fits were made assuming a simple one-to-one binding model."}, "[2]": {"test_system": "sebocytes", "experiment": "IGF-1 stimulated lipogenesis in sebocytes (Oil Red O, thin-layer and gas chromatography of lipids)", "assay_type": "cell-based, human", "conditions": "IGF-1 stimulated sebocytes", "description": "The activities of 1-7 and 1-8 on an immortalized sebocyte cell line were examined in the laboratory of Prof Im Myung using methods previously described [Im et al. Epigallocatechin-3-gallate suppresses IGF-I-induced lipogenesis and cytokine expression in SZ95 sebocytes. J. Invest. Dermatol. […] Proliferation of the sebocytes was measured using the MTT assay, by examination of micrographs of the cells in culture, and ^3H-thymidine incorporation. The effects of the test agents on lipogenesis were further studied by Oil Red O staining and analysis of the lipid composition of the cells. Studies were also conducted on signaling pathways for lipogenesis [PPAR and SREBP-1, Trivedi et al. Peroxisome proliferator-activated receptors increase human sebum production. J. Invest. Dermatol.\nJ. Invest. Dermatol. […] Oil Red 0 [Sudan Red 5B] is a diazo dye used for staining neutral triglycerides and lipids on cells."}, "[3]": {"test_system": "sebocytes", "experiment": "3H-thymidine incorporation into sebocytes", "assay_type": "cell-based, human", "conditions": "Homo sapiens, 3 h; uptake into sebocytes; NS = not significant", "description": "(§1) The activities of 1-7 and 1-8 on an immortalized sebocyte cell line were examined in the laboratory of Prof Im Myung using methods previously described [Im et al. Epigallocatechin-3-gallate suppresses IGF-I-induced lipogenesis and cytokine expression in SZ95 sebocytes. J. Invest. Dermatol. 132, 2700-8 (2012)]. Proliferation of the sebocytes was measured using the MTT assay, by examination of micrographs of the cells in culture, and ^3H-thymidine incorporation. The effects of the test agents on lipogenesis were further studied by Oil Red O staining and analysis of the lipid composition of the cells. Studies were also conducted on signaling pathways for lipogenesis [PPAR and SREBP-1, Trivedi et al. Peroxisome proliferator-activated receptors increase human sebum production. J. Invest. Dermatol. 126, 2002-9 (2006)].\n(§2) 1-7 and 1-8 are sensory cooling agents on the skin and activators [agonists] of the TRPM8 ion channel protein. […] The indicators used for direct comparison were sebocyte viability measured in the MTT assay and then the ^3H-thymidine incorporation assay."}, "[4]": {"experiment": "Foaming of aqueous solution on manual shaking", "assay_type": "physicochemical", "conditions": "10 mg/mL in distilled water", "description": "The foaming seen in 7B is characteristic of a surface active agent or “surfactant” and is caused by an amphiphilic structure.\nPlain water will not make bubbles because the water molecules are more strongly attracted to each other than to air. But when a surfactant is added, the surface tension of the liquid is reduced and it can wrap itself around air to form foam or soap bubbles. The foaming is enhanced when the liquid is shaken vigorously."}, "[5]": {"test_system": "sebocytes", "experiment": "Sebocyte viability, MTT assay", "assay_type": "cell-based, human", "description": "as §1\nThe MTT assay is a colorimetric assay for cell viability. MTT [3-(4,5-dimethylthiazol-2-yl)-2-5-diphenyltetrazolium bromide], a yellow tetra-azole dye, is reduced to purple formazan in living cells by NADPH-dependent oxidoreductase enzymes. When the number of viable cells decreases the amount of enzymatic activity and purple color decreases and this can be measured with a spectrophotometer.\nas §2"}}}
{"smiles": "CCCCCCCCCCCP(=O)(C(C)C)C(C)C", "note": "[Code 1-11, 1-diisopropylphosphorylundecane]", "values": [{"measurement": "Activity on TRPM8", "setting": "[1]", "result": "low potency"}, {"measurement": "Levels / production of squalene (thin layer chromatography, FIG. 5)", "setting": "[2]", "result": "lowers"}, {"measurement": "activity at 10 µM", "setting": "[3]", "result": "≥ 88", "unit": "%"}, {"measurement": "Appearance after manual shaking (FIG. 7B)", "setting": "[4]", "result": "foaming"}, {"measurement": "Activity relative to 1-8 in the MTT sebocyte assay", "setting": "[5]; FIG. 4", "result": "10,000 x"}, {"measurement": "Sebocyte cell viability as % of controls (FIG. 4)", "setting": "[5]; at 0.10 μM", "result": "strongly inhibited"}]}
